The values below come from publication PMC12040169 (PLOS Biology, 2025).

A short description of this data set: in vitro. The following applies: human, hela cells, % viability.

A word on the viability: it is a read-out of living cells in per cent, often relative to untreated cells. Consider `O=C(N[C@H]1C[C@H]2C(=O)NC[C@@H](CCC(=O)N3CCOCC3)N2C1)c1cccs1` [CBK289009], for which the viability at 28.5 h, 10 µM worked out at 92%. On the same count and under the same terms, the same measure for `O=C(c1ccco1)N1CCN(c2cc(-c3cccc4cccnc34)ncn2)CC1` [CBK091117]: 99.1%; for `OCC1CCCN1c1cncc(-c2cccnc2)n1` (stereo not shown) [CBK065439]: 100%; for `COc1ccc(CN[C@H]2[C@H](O)[C@@H](N3CCCC3)[C@@H]3OC[C@H]2O3)cc1` [CBK288827]: 88.6%. For `CC(C)C(=O)N1CCC(n2nc(C3CC3)ccc2=O)CC1` [CBK282351], the viability at 28.5 h, 10 µM stood at 104%.

In the case of `Cn1c(=O)n(CC(=O)N2CCC(C(=O)NC(c3ccccc3)c3ccccn3)CC2)c2ccccc21` (stereo not shown) [CBK060494], the viability at 28.5 h, 10 µM amounted to 96%.

`COC(=O)CCc1ccc(S(=O)(=O)N2CCN(Cc3csc(-c4ccccc4)n3)CC2)cc1` [CBK062812]: the viability at 28.5 h, 10 µM is 91.8%.

Turning to `CCNC(=O)Nc1ncc(-c2ccc(OC(F)(F)F)cc2)c2cccnc12` [CBK070690], the viability at 28.5 h, 10 µM was 94%. Still for that read-out and setting: the figure for `Cc1cc(Br)ccc1S(=O)(=O)N(C)c1ccc(N2CCNCC2)c2ccccc12` [CBK016170C] is 96%; for `COC(=O)c1cc(C(=O)Nc2ccc(OCCC(N)=O)cc2)c[nH]1` [CBK305486] it is 103%. Take `O=C(CC1CS(=O)(=O)CC1CC(=O)Nc1cccc(Cl)c1Cl)Nc1cccc(Cl)c1Cl` (stereo not shown) [CBK262404]: the viability at 28.5 h, 10 µM came to 95.3%. On the same count and under the same terms, the figure for `NC(=O)c1ccc(Nc2cc(N)ncn2)cc1` [CBK017969] is 94.1%; for `CSc1nc(C(=O)NC2CCCN(c3ncccn3)C2)cs1` (stereo not shown) [CBK307198] it is 98.7%. On the same count and under the same terms, the same measure for `CCN(CC)C(=O)c1ccc(NS(=O)(=O)c2cc(F)c(Br)cc2F)cc1` [CBK034388]: 90.1%. Turning to `FC(F)(F)c1ccnc(SCCc2ccccn2)c1` [CBK103709], the viability at 28.5 h, 10 µM stood at 105%. Same read-out and setting: the same measure for `Cc1cc2nc(SCCNC(=O)c3ccc(Cl)cc3)nc(C)c2cc1C` [CBK266223]: 93.3%; for `CN(C)CCN(Cc1ccncc1)Cc1ccc(F)cc1F` [CBK283094]: 98.2%; for `COc1cccc(C2(NC(=O)Cn3nc(C)cc3C)CCCC2)c1` [CBK283648]: 98.1%. On the same count and under the same terms, the figure for `c1csc(CN2CCC(n3cnc4cccnc43)CC2)c1` [CBK283968] is 101%; for `O=C(CN1C2CCC1CC(O)(c1ccco1)C2)N1c2ccccc2CCc2ccccc21` (stereo not shown) [CBK286168] it is 94%. Still for that read-out and setting: the same measure for `O=C(NCCc1cccs1)Nc1ccc(F)c(F)c1F` [CBK044543]: 96.1%. Take `CC(Cn1cncn1)C(=O)N1CCc2sccc2C1C` (stereo not shown) [CBK282080]: the viability at 28.5 h, 10 µM turned out to be 106%. On the same count and under the same terms, the same measure for `Cc1c(C(=O)N(C)CCc2ccncc2)[nH]c2ccccc12` [CBK283271]: 104%; for `O=C(Cc1csc(-c2ccc(Cl)cc2)n1)NCCN1CCCC1` [CBK107306]: 90%. Regarding `O=C(CCc1cccnc1)N1CCC(F)CC1` [CBK200275], the viability at 28.5 h, 10 µM stood at 103%. As for `CC(C)(CN1CCCCC1)NC(=O)CCOc1cccc(F)c1` [CBK282060], the viability at 28.5 h, 10 µM was determined as 87.2%. On the same count and under the same terms, the same measure for `CC(=O)c1ccc(NC(=O)[C@@]2(CC(=O)O)CC(c3ccc(F)cc3)=NO2)cc1` [CBK286663]: 85%; for `CC(SCCc1ccccn1)C(=O)O` (stereo not shown) [CBK026572]: 109%; for `COc1ccc(C2=CC(c3ccc(C(F)(F)F)cc3)n3nnnc3N2)cc1OC` (stereo not shown) [CBK296131]: 117%. Regarding `CCCn1ncc(C(=O)N2CCN(CC3CCCN(C)C3)CC2)c1C` (stereo not shown) [CBK307122], the viability at 28.5 h, 10 µM turned out to be 89.1%. For the molecule `CCN(CC)CCNc1nc2c(=O)[nH]c(=O)n(C)c2[nH]1` [CBK287918], the viability at 28.5 h, 10 µM stood at 116%. Still for that read-out and setting: the figure for `c1nc(N2CCOCC2)c2cn[nH]c2n1` [CBK016811] is 86.3%; for `O=C(CSCc1ccc(Br)cc1)Nc1ccc(S(=O)(=O)N2CCOCC2)cc1` [CBK267845] it is 97.1%. `CC(=O)Nc1ccc(C(=O)CSc2nnc(-c3ccncc3)o2)cc1` [CBK266349]: the viability at 28.5 h, 10 µM turned out to be 105%. Still for that read-out and setting: the figure for `COc1cc(NC(=S)P(=O)(c2ccccc2)c2ccccc2)c(OC)cc1Cl` [CBK021976] is 95.6%; for `Cn1nc(C(=O)N2Cc3cnn(Cc4ccc(F)cc4)c3C2)ccc1=O` [CBK306855] it is 83%; for `CC(C)c1nc(CC(=O)NCCS(=O)(=O)N2CCc3ccccc32)cs1` [CBK305630] it is 84.5%. Still for that read-out and setting: the same measure for `Cc1c(C(=O)Nc2ccc(C(=O)O)cc2)nnn1-c1ccc(Cl)cc1` [CBK300532]: 84.4%. The same measure, in the same setting: the figure for `Cc1nc2ccccc2c(C)c1C(=O)OCc1nc(N)nc(N(C)C)n1` [CBK295627] is 70.6%.

Consider `O=C(NCCc1cccs1)Nc1cccc(CN2CCCCC2)c1` [CBK306882], for which the viability at 28.5 h, 10 µM worked out at 96.1%. For the molecule `O=C(NC1Cc2ccccc2C1)c1cncnc1` [CBK200262], the viability at 28.5 h, 10 µM turned out to be 119%. For `CC(C)C(=O)Nc1ccc2[nH]cc(C(C(=O)O)N3CCN(c4ccccc4)CC3)c2c1` (stereo not shown) [CBK286645], the viability at 28.5 h, 10 µM worked out at 85.7%. Turning to `Cc1ccccc1NC(=O)NCCCN1CCN(C)CC1` [CBK267837], the viability at 28.5 h, 10 µM is 85.2%. Same read-out and setting: the same measure for `Cc1ccc(C(=O)N(C)Cc2cc(-c3ccncc3)no2)c(=O)n1C` [CBK307324]: 83.7%; for `COc1ccc(NC(=O)c2cc(-c3cccc(Cl)c3)nc3ccccc23)c([N+](=O)[O-])c1` [CBK267777]: 86.7%. Same read-out and setting: the figure for `O=S(=O)(c1ccc(-c2ccccc2)cc1)N1CCCN(Cc2cccnc2N2CCOCC2)CC1` [CBK063127] is 99.5%. Same read-out and setting: the figure for `CN(CC(=O)Nc1ccc(N(C)C)cc1)Cc1ccc(F)cc1` [CBK295188] is 86.1%. For the molecule `O=C(OCCC1SC(NC2CC3C=CC2C3)=NC1=O)c1ccc(Cl)c(Cl)c1` (stereo not shown) [CBK200056T], the viability at 28.5 h, 10 µM was 87.1%.

As for `CC(C)c1noc(NCc2nnc3n2CCCCC3)n1` [CBK306352], the viability at 28.5 h, 10 µM was determined as 113%. Still for that read-out and setting: the same measure for `CC1CC(/N=C2/NCCS2)CC(C)(C)C1` (stereo not shown) [CBK020293]: 102%; for `O=C(CSc1ncn[nH]1)N/N=C/c1cn(-c2ccccc2)nc1-c1ccccc1` [CBK262850]: 101%.

For the molecule `COc1cc(-c2ccc3c(c2)COC2(CCN(C(=O)OC(C)(C)C)CC2)O3)ccc1O` [CBK116310], the viability at 28.5 h, 10 µM (bulk resorufin, single well) turned out to be 116%. Take `CC(=O)Nc1ccc(S(=O)(=O)N2CCN(c3ccc([N+](=O)[O-])c(N4CCOCC4)c3)CC2)cc1` [CBK264764]: the viability at 28.5 h, 10 µM worked out at 109%.

As to `COc1cc2c(cc1OC)CN(Cc1ccc(OCc3ccccc3)c(OC)c1)CC2` [CBK033974], the viability at 28.5 h, 10 µM came out at 93%. Turning to `CC(=O)Nc1ccc(S(=O)(=O)N2CCCC(CO)C2)cc1` (stereo not shown) [CBK262108], the viability at 28.5 h, 10 µM is 98.6%. On to `CNC(Cc1ccccc1)c1ccccc1OC` (stereo not shown) [CBK011943C], for which the viability at 28.5 h, 10 µM (bulk resorufin, single well) came to 88.6%. With `CC(C)(N)CC(=O)N1CCN(c2ncccn2)CC1` [CBK144532], the viability at 28.5 h, 10 µM is 91.3%. In the case of `CC(C)C(=O)Nc1cc2ccccc2c(-c2ccc(OCc3ccccc3)c(F)c2)n1` [CBK073783], the viability at 28.5 h, 10 µM was determined as 89.8%.

For the molecule `COc1ccc(CC(=O)Nc2cccc(-c3cn4ccc(C)cc4n3)c2)cc1OC` [CBK269148], the viability at 28.5 h, 10 µM came out at 84.5%.

With `Cc1ccc(C2CCCN2C(=O)c2cccn(CC(=O)NC3CCCCC3)c2=O)cc1C` (stereo not shown) [CBK286009], the viability at 28.5 h, 10 µM amounted to 92.2%. The same measure, in the same setting: the same measure for `O=C(CSc1nnc(-c2cccnc2)n1Cc1ccccc1)Nc1ccc(F)cc1` [CBK267528]: 96.8%. Consider `C=CCn1c(SCC(=O)O)nnc1-c1ccc([N+](=O)[O-])cc1` [CBK262736], for which the viability at 28.5 h, 10 µM amounted to 88.6%. On the same count and under the same terms, the figure for `Cc1ccc(C)c(Oc2coc3cc(OCC(=O)Nc4ccccc4C(C)C)ccc3c2=O)c1` [CBK265906] is 113%. As to `OCc1ccccc1-c1cncc(N2CCCC2CO)n1` (stereo not shown) [CBK065333], the viability at 28.5 h, 10 µM amounted to 106%.

`Cn1ccnc1SCCNC(=O)c1cccc(Cn2cccn2)c1` [CBK282112]: the viability at 28.5 h, 10 µM amounted to 105%. The same measure, in the same setting: the figure for `O=C1OCCN1S(=O)(=O)c1ccc(CN2CCCN(Cc3ccc(S(=O)(=O)N4CCOC4=O)cc3)CC2)cc1` [CBK024728] is 87.1%; for `CCCOc1ccc(C(C)=O)cc1CC(C(N)=O)C(N)=O` [CBK263309] it is 90.6%. For the molecule `Cn1cc(CN2CCCN(C(=O)c3cc4ccccc4[nH]3)CC2)cn1` [CBK304920], the viability at 28.5 h, 10 µM stood at 96%. As to `Cc1nn(CCC#N)c(C)c1[C@@H]1C=C[C@@H](NC(=O)Nc2ccccc2)C1` [CBK289173], the viability at 28.5 h, 10 µM is 92.9%.

`Cc1cc(CNC(=O)N2CCCCC2CO)no1` (stereo not shown) [CBK156160]: the viability at 28.5 h, 10 µM amounted to 108%. `Cn1cc(-c2ccc(OCC3CCN(C(=O)OC(C)(C)C)CC3)cn2)cn1` [CBK173498]: the viability at 28.5 h, 10 µM is 77.8%. Same read-out and setting: the figure for `O=C1CCCN1c1ccc(CN2CCC(O)(c3ccccc3)C2)cc1` (stereo not shown) [CBK282808] is 98.4%; for `CNC(=O)c1cn2cc(-c3cccs3)n(CC3CC3)c(=O)c2n1` [CBK306838] it is 84%; for `O=C(CN(Cc1ccccc1)S(=O)(=O)c1cc(Cl)ccc1Cl)Nc1cccc(F)c1` [CBK264664] it is 89.3%. Still for that read-out and setting: the same measure for `CN(C)C(=O)CN1C(=O)N2CCN=C2c2ccccc21` [CBK283961]: 94.7%; for `O=C(Nc1ccc(OC(F)F)cc1)Nc1c(Br)cnc2cccnc12` [CBK107632]: 87.8%. Regarding `Nc1ncc(-c2ccc(Cl)cc2)c(C2CCCN(C(=O)Cc3c[nH]c4ccccc34)C2)n1` (stereo not shown) [CBK285574], the viability at 28.5 h, 10 µM was found to be 113%. On the same count and under the same terms, the same measure for `Cc1onc(-c2ccccc2)c1C(=O)N1CCC(C(N)=O)CC1` [CBK158721]: 84.4%; for `Cc1cc(C(=O)NC(C)c2ccccn2)c2ccccc2n1` (stereo not shown) [CBK281826]: 96.9%.
